According to patent publication US11207301B2, “Sphingosine 1 phosphate receptor agonists for neuroprotection” (RECEPTOS LLC, priority 2017, dated 2021):
pEC50: −log10 of the molar value.

Columns and labels:
Assay type in all cases: cell-based
[1] = tested on: AKT phosphorylation in primary mouse astrocytes; experiment: AKT phosphorylation in primary mouse cortical astrocytes (AlphaLISA SureFire Ultra); conditions: Astrocyte, 10 min, 10-minute exposure, mean of n=3
Procedure: (§1) For the experiments using mouse and human primary astrocytes, ten-point concentration-response curves (90 nM-4.57 pM or 30 nM-1.52 pM) were generated for AKT and/or ERK phosphorylation in primary human and mouse cortical astrocytic cultures in response to a 10-minute treatment with ozanimod, Compound 3, Compound 1, or FTY720-P. AKT and ERK phosphorylation were quantified using AlphaLISA SureFire Ultra Assay kits and the EnVision Plate Reader. AKT and ERK phosphorylation within treated astrocytes were expressed as the mean change in signal intensity compared to the dimethyl sulfoxide (DMSO) vehicle and the half maximal effective concentration (EC50) was determined using non-linear regression.
Timed pregnant (E16) C57BL/6J female mice arrive to the test facility on a weekly basis and were housed and cared for according to appropriate protocols for this model. Primary mouse cortical astrocytes are harvested from P0-P2 pups. The newly born animals were deeply anesthetized on ice, decapitated, and the brains were rapidly removed and stored in ice-cold NbAstro media (BrainBits, LLC). Cells were dissociated from freshly dissected cortices by mechanical disruption in the presence of trypsin and DNase. Cells were put into a PDL coated T75 tissue culture flask containing 16 mL NbAstro Media and incubated at 37° C. 5% CO2. Once the mouse astrocytes had reached confluency in the T75 flask, they were detached using TripLE detachment reagent, pelleted at 300×g, expanded into two T225 PDL coated tissue culture flasks containing 40 mL of NbAstro and incubated at 37° C. 5% CO2. Once the astrocytes reached confluency in the T225 flasks they were detached using TrypLE detachment reagent, pelleted at 300×g, plated into PDL coated 96-well plates at a density of 10,000 cells per well in 200 μL NbAstro and incubated at 37° C. 5% CO2. Half of the media was replenished every 3-4 days. After 5-7 days of incubation, the P2 mouse astrocyte plates were utilized for the pERK and pAKT assays.
Cell lysis and detection of pAKT were performed according to the PerkinElmer AlphaLISA SureFire Ultra pAKT1/2/3 ([…]) assay protocol. Astrocytes were lysed in the 96-well plate following a 10 minute incubation with compounds with shaking at room temperature (RT). The astrocytic lysates (10 μL/well) were transferred into a 384-well OptiPlate. As specified by the assay protocol, an acceptor bead mix and a donor bead mix (5 μL/well for each) were added to the plate under subdued light. […] The plates were read on the EnVision Plate Reader to assess the pAKT levels.
(§2) The AKT and ERK phosphorylation data, collected by a Perkin Elmer EnVision Microplate Reader, was analyzed by non-linear regression (GraphPad Prism, version 7.03) to determine the EC50 values.

[2] = tested on: AKT phosphorylation in primary rat astrocytes; experiment: AKT phosphorylation in primary rat astrocytes (MSD pAKT assay); conditions: Astrocyte, 10 min, 10-minute exposure, mean of n=4
Procedure: (§3) For the experiments using rat primary astrocytes, eight-point concentration-response curves were generated for AKT and ERK phosphorylation in primary rat astrocytes cultures in response to a 10-minute treatment with ozanimod (100 nM-46 pM), Compound 3 (10 nM-5 pM), Compound 1 (10 nM-5 pM), or FTY720-P (10 nM-5 pM). Phosphorylation of AKT and ERK was quantified using Meso Scale Discovery assay kits (MSD Mutli-Spot Phopho-AKT (Ser473) Assay Kit and MSD Multi-Spot MAP Kinase Phosphoprotein Assay Whole Cell Lysate Kit) and imaging platform. AKT and ERK phosphorylation within treated astrocytes were assessed as the mean change in signal intensity compared to DMSO vehicle and the half maximal effective concentration (EC50) was determined using non-linear regression.
(§4) Embryonic day18 (E18) rat cortices were purchased from BrainBits LLC. (Springfield, Ill.) and were cultured according to the supplier's protocol. Briefly, cortices were incubated at 37° C. for 10 minutes in activated papain solution before trituration in hibernation medium containing B27 supplement using a modified siliconized glass Pasteur pipette. The cell suspension was centrifuged at 1100×g for 1 minute at room temperature (RT). The cell pellet was then resuspended in NbAstro medium (BrainBits LLC.) and the live cell density was assessed using a cell counter. Primary cells were plated at a density of 7500 cells/cm2 in T75 tissue culture flasks coated with poly-D-lysine (PDL) in a total volume of 12 mL of NbAstro media, and incubated for 10-14 days at 37° C. 5% CO2. After 10-14 days, primary astrocytes in passage 0 (P0) that had reached confluency in the T75 flasks were detached using TrypLE detachment reagent, pelleted at 300×g, and plated into poly-d-lysine coated T225 flasks in 20 mL of NbAstro media, and incubated for another 7 days at 37° C. 5% CO2. After 7 days, primary P1 astrocytes in confluent T225 flasks were detached using TrypLE detachment reagent, pelleted at 300×g, and plated intopoly-d-lysine coated 96-well plates at 10,000 cells per well in 200 μL of NbAstro media, and incubated for 7 days at 37° C. 5% CO2. After 7 days, P2 primary astrocytes were utilized for pAKT and pERK assays.
(§5) The pAKT (phosphorylated AKT) assay was performed according to the manufacturer's protocol. Briefly, MSD pAKT plates were blocked for 1-2 hours by adding 150 μL of blocker A prepared in 1× Tris wash buffer. […] Following antibody incubation, plates were washed three times with 150 μL of 1× Tris wash buffer and 1× read buffer (150 μL/well) was added. Finally, plates were read in the MSD imager platform to assess pAKT levels.
(§6) AKT and ERK phosphorylation data were analyzed by non-linear regression (GraphPad Prism, version 6) to determine the EC50 values.

[3] = tested on: ERK phosphorylation in primary human astrocytes; experiment: ERK phosphorylation in primary human cortical astrocytes (AlphaLISA SureFire Ultra); conditions: Astrocyte, 10 min, 10-minute exposure, n=3-5
Procedure: as §1
Primary human astrocytes were purchased from ScienCell Research Laboratories, Inc. and cultured according to the supplier's protocol. The astrocytes were obtained from the human cerebral cortex, cryopreserved at passage one, and delivered frozen. The frozen vials of cells were gently thawed in a 37° C. water bath. Once the contents of the vial were completely thawed, the cell solution was dispensed into a poly-L-lysine (PLL) coated T75 tissue culture flask with 16 mL of human Astrocyte Media, (ScienCell Research Laboratories, Inc.) and incubated at 37° C. 5% CO2. Once the human astrocytes had reached confluency in the T75 flask, they were detached using trypsin/EDTA 0.25%, pelleted at 300×g, split into two PLL coated T225 tissue culture flasks in 40 mL of astrocyte media, and incubated at 37° C. 5% CO2. Once the astrocytes reached confluency in the T225 flasks, they were detached using trypsin/EDTA 0.25% solution, pelleted at 300×g, plated into poly-D-lysine (PDL) coated 96-well plates at a density of 10,000 cells per well in 200 μL human Astrocyte Media, and incubated at 37° C. 5% CO2. Half of the media was replenished every 3-4 days. After 5-7 days of incubation, the P2 human astrocyte plates were utilized for the pERK and pAKT assays.
Cell lysis and detection of pERK were performed according to the PerkinElmer AlphaLISA SureFire Ultra p-ERK1/2 (Thr202/TYR 204) assay protocol. Astrocytes were lysed in the 96-well plate following a 10 minute incubation with compounds with shaking at RT. The astrocytic lysates (10 μL/well) were transferred into a 384-well OptiPlate. As specified by the assay protocol, an acceptor bead mix and a donor bead mix (5 μL/well for each) were added to the plate under subdued light. Plates were sealed with adhesive plate seals and incubated in the dark for 2 hours at RT. The plates were read on the EnVision Plate Reader to assess the pERK levels.
as §2

[4] = tested on: ERK phosphorylation in primary rat astrocytes; experiment: ERK phosphorylation in primary rat astrocytes (MSD pERK assay); conditions: Astrocyte, 10 min, 10-minute exposure, mean of n=3
Procedure: as §3, §4
as §5, with “The pERK” for “The pAKT”, “(phosphorylated ERK)/pMAPkinase” for “(phosphorylated AKT)”, “MSD pERK/pMAPkinase” for “MSD pAKT”, “Finally, the” for “Finally,”, “assess the pERK” for “assess pAKT”
as §6

pEC50 [1]: 9.89
pEC50 [2]: 9.64
pEC50 [3]: 9.30
pEC50 [4]: 9.96
Structure (SMILES): CC(C)Oc1ccc(-c2nc(-c3cccc4c3CCC4NCC(=O)O)no2)cc1C#N (stereo not shown) [Compound 3]
